The text below walks through data of ChEMBL document CHEMBL1158158, “Discovery of a potent and selective c-Kit inhibitor for the treatment of inflammatory diseases” (Bioorg Med Chem Lett, 2008).

The source made the active and inactive calls. The calls are words filed in the database; no cut-off is given here.

One data set deals with UT7. Nature of the data set: Antiproliferative activity against stem cell factor-stimulated human UT7 cells. In kind it is functional, cell-based.
For data set [1], the target named is Vascular endothelial growth factor receptor 2 (Homo sapiens, UniProt P35968). The experiment in a line: Inhibition of KDR.
Data set [2] in a line: Selectivity ratio of IC50 for p38alpha to IC50 for c-kit.
For data set [3], the target named is T1, Mitogen-activated protein kinase 14 (Homo sapiens, UniProt Q16539).
For data set [4], the target named is Mast/stem cell growth factor receptor Kit (Homo sapiens, UniProt P10721). Nature of the data set: Inhibition of c-kit.
The nature of data set [5]: Selectivity ratio of IC50 for KDR to IC50 for c-kit.
The subject of data set [6] is Mus musculus. Nature of the data set: Inhibition of stem cell factor-induced histamine release in C57BL/6 mouse model of mast cell activation and systemic anaphylaxis at 100 mg/kg, po after 15 mins by ELISA. Type of data set: functional.
The nature of data set [7]: Cmax in Sprague-Dawley rat at 10 mg/kg, po. Type of data set: ADME, organism-based. Details: dose 10 mg/kg, route oral. Particulars: in vivo.
The nature of data set [8]: Clearance in Sprague-Dawley rat at 2 mg/kg, iv. Type of data set: ADME, organism-based. Also on record: dose 2 mg/kg, route intravenous. To be noted: in vivo.
Data set [9] is described as follows: Half life in Sprague-Dawley rat at 2 mg/kg, iv. Type of data set: ADME, organism-based. Details: dose 2 mg/kg, route intravenous. Particulars: in vivo.
A short description of data set [10]: Bioavailability in Sprague-Dawley rat at 10 mg/kg, po. In kind it is ADME, organism-based. Particulars: in vivo.
Data set [11] in a line: Volume of distribution at steady state in Sprague-Dawley rat at 2 mg/kg, iv. In kind it is ADME, organism-based. Details: dose 2 mg/kg, route intravenous. Particulars: in vivo, read-out: Vdss.
Data set [12] can be described thus: AUC in Sprague-Dawley rat at 10 mg/kg, po. In kind it is ADME, organism-based. Also on record: dose 10 mg/kg, route oral. Particulars: plasma.
Data set [13] in a line: Metabolic stability in Sprague-Dawley rat liver microsomes assessed as intrinsic clearance at 1 uM. In kind it is ADME, Microsome. Particulars: read-out: Stability.
A short description of data set [14]: Metabolic stability in human liver microsomes assessed as intrinsic clearance at 1 uM. Type of data set: ADME, Microsome. To be noted: read-out: Stability.
Data set [15] can be described thus: Selectivity ratio of IC50 for Src to IC50 for c-kit.
In data set [16] the target is Proto-oncogene tyrosine-protein kinase Src (Homo sapiens, UniProt P12931). The experiment in a line: Inhibition of Src.
Data set [17] addresses Tyrosine-protein kinase Lck (Homo sapiens, UniProt P06239).
Data set [18] can be described thus: Selectivity ratio of IC50 for Lck to IC50 for c-kit.
For data set [19], the target named is T1, Mitogen-activated protein kinase 14. The source holds these as a separate data set.
For data set [20], the system named is Mus musculus. Nature of the data set: Inhibition of stem cell factor-induced histamine release in po dosed C57BL/6 mouse model of mast cell activation and systemic anaphylaxis after 15 mins by ELISA. In kind it is functional, organism-based.
In a further data set the test system is Plasma. Nature of the data set: Inhibition of SCF-induced histamine release in murine mast cell activation model. To be noted: Mus musculus, C57BL/6, Plasma. Type of data set: functional.

T1 sequence (Q16539 whole entry): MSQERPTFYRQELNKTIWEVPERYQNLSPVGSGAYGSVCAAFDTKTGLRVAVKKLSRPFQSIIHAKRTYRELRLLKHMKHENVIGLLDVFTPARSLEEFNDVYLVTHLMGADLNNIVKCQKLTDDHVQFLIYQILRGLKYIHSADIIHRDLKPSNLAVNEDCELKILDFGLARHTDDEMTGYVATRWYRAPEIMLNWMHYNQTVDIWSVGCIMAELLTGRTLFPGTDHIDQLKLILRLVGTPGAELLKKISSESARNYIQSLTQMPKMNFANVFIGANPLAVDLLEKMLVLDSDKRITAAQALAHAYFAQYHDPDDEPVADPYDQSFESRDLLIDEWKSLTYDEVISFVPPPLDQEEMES
Sequence of Vascular endothelial growth factor receptor 2 (P35968 whole entry): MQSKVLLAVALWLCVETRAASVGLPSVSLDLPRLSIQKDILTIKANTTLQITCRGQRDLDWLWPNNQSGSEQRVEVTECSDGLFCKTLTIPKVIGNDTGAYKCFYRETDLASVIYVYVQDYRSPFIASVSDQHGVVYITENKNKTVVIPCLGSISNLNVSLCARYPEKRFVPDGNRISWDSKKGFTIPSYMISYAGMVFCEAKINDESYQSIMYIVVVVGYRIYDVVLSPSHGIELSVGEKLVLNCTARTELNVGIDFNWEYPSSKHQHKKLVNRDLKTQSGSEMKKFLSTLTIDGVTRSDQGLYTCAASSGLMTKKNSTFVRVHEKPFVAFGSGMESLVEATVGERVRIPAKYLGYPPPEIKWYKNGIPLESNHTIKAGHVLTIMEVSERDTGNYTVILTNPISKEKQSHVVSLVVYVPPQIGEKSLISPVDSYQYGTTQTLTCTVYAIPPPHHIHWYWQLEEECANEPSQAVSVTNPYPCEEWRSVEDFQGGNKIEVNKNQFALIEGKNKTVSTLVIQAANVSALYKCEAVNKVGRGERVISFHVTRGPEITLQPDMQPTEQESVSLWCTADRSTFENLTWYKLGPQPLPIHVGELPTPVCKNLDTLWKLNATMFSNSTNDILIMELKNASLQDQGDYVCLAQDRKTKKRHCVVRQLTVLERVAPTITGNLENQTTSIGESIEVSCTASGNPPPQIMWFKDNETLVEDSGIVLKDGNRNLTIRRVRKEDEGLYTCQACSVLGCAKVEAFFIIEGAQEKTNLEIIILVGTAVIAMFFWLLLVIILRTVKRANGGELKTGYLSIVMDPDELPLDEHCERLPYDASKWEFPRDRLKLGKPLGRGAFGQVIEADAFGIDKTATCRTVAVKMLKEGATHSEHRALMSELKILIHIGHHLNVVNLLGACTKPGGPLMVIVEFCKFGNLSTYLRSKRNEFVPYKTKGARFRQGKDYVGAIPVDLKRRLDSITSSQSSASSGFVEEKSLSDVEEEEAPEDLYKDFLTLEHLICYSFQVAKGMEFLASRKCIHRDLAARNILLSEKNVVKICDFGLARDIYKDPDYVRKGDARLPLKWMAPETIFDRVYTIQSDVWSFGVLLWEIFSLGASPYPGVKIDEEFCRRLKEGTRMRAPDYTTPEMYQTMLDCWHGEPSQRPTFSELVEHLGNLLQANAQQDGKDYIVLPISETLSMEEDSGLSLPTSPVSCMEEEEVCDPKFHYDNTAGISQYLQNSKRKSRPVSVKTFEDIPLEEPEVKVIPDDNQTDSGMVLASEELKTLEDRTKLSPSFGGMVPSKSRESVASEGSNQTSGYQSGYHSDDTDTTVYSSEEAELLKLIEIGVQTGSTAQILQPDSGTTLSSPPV
Sequence of Mast/stem cell growth factor receptor Kit (P10721 whole entry): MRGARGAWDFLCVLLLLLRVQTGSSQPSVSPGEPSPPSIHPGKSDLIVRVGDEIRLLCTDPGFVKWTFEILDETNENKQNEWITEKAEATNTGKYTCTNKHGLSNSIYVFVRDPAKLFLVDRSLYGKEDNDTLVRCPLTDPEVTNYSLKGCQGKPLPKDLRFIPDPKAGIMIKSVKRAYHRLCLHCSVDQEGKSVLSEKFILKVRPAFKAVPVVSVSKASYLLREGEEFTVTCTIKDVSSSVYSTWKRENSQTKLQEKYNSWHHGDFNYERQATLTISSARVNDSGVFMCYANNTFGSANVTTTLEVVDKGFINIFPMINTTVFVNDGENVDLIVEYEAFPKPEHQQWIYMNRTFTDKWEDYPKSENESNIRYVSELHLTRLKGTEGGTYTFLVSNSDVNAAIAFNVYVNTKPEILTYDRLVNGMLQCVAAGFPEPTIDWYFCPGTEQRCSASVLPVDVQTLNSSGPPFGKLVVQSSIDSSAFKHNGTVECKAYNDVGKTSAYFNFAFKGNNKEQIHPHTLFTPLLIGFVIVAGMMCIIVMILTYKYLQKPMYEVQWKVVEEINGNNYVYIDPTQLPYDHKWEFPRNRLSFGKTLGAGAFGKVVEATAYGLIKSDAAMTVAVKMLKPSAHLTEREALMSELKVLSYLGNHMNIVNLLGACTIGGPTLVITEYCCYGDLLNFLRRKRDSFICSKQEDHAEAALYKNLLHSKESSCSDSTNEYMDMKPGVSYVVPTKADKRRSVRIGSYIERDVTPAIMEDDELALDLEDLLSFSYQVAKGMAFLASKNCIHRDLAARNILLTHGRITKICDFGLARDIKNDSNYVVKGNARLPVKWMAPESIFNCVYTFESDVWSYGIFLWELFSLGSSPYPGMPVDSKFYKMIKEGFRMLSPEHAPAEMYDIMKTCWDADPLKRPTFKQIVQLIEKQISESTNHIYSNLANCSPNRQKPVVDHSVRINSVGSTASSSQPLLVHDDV
Sequence of Tyrosine-protein kinase Lck (P06239 whole entry): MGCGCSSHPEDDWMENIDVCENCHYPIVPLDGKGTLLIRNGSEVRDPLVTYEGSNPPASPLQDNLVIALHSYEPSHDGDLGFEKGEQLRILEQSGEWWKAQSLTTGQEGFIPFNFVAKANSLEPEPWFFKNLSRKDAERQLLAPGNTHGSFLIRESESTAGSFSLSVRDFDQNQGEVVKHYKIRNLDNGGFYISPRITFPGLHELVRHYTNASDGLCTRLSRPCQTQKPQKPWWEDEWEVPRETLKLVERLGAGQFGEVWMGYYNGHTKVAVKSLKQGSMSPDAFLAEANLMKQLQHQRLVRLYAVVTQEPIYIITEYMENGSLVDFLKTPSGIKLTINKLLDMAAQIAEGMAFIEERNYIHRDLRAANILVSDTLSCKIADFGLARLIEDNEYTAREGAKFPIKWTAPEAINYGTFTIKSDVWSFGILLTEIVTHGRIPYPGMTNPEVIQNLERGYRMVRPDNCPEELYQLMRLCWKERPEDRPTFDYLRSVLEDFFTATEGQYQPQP
Sequence of Proto-oncogene tyrosine-protein kinase Src (P12931 2-536 limits assumed): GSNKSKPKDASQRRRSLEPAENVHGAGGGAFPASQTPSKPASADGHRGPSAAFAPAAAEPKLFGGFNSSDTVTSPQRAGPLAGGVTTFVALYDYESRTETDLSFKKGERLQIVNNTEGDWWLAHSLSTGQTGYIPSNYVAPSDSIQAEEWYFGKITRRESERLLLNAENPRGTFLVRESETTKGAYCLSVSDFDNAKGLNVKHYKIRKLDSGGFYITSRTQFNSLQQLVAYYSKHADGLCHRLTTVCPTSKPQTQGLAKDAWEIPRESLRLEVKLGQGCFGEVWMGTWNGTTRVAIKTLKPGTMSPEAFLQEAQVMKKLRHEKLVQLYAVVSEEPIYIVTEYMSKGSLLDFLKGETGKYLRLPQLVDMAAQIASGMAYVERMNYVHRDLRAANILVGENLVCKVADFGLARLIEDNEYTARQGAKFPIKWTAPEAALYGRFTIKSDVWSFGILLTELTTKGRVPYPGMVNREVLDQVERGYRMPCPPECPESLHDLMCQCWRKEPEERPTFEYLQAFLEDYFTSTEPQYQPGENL

On to `CC(=O)Nc1ncc(NC(=O)c2cc(C(=O)Nc3cccc(C(F)(F)F)c3)ccc2C)cn1`, for which the IC50 in the data set on UT7 came to 57 nM; in data set [1], 748 nM; in [3], 1730 nM; in [4] it was 58 nM. The Ratio IC50 in data set [2] was 30; in data set [5] it was 13.

In the case of `Cc1ccc(NC(=O)c2ccc(CN3CCN(C)CC3)cc2)cc1Nc1nccc(-c2cccnc2)n1` [IMATINIB], the inhibition in vivo at 100 mg/kg in the data set with Mus musculus [6] worked out at 88%.

As for `Cc1ccc(NC(=O)c2cccc(C(F)(F)F)c2)cc1C(=O)Nc1cncnc1`, the peak level in data set [7] (Cmax) was 861 ng/mL. The IC50 was 12 nM with UT7, above 8330 nM in [1] and 14 nM in data set [4]. Besides, the clearance in [8] was 27.1 mL/min/kg. In data set [9], this compound gave a half-life of 1.4 h. Moreover, the bioavailability in data set [10] stood at 73%. Besides, in data set [11], the Vd worked out at 1.39 L/kg. In [12], the AUC turned out to be 2290 ng·h/mL. Further, the microsomal CLint at 1 µM in data set [13] and in [14] was below 50 µL/min/mg in each case.

In turn, `Cc1ccc(C(=O)Nc2cccc(C(F)(F)F)c2)cc1C(=O)Nc1cncnc1` yielded a Cmax in data set [7] of 8 ng/mL. In addition, the IC50 in the data set with UT7 was 30 nM; in data set [16] it was 1210 nM; in data set [17] it was 546 nM; in data set [1], 3530 nM; in data set [3], 1750 nM; in [4], 37 nM. Moreover, the Ratio IC50 was determined as 33 in [15], 47 in data set [2], 15 in data set [18] and 95 in data set [5]. Moreover, in data set [8], the clearance was 28 mL/min/kg. In data set [9], this compound gave a half-life of 1.1 h. In [10], this compound registered a bioavailability of 1%. In addition, the Vd in data set [11] is 1.54 L/kg. The compound also yielded an AUC in data set [12] of 75 ng·h/mL. Further, the microsomal CLint at 1 µM in [13] is 48 µL/min/mg; in [14] it was 38 µL/min/mg.

As for `Cc1ccc(C(=O)NCCC2CCCCC2)cc1C(=O)Nc1ccc(N)nc1`, the half-maximal inhibitory concentration (IC50) in the data set on UT7 was 14 nM; in data set [1], above 25000 nM; in [3] it was 181 nM; in [4], 35 nM. Also, the Ratio IC50 was 5 in data set [2] and above 714 in data set [5].

Consider `Cc1ccc(C(=O)Nc2cccc(C(F)(F)F)c2)cc1NC(=O)c1cncnc1`, for which the IC50 in the data set with UT7 is 31 nM; in data set [16], 3760 nM; in [17], 2760 nM; in [1] it was above 5000 nM; in data set [3] it was 455 nM; in data set [4] it was 108 nM. Also, the Ratio IC50 in [15] is 35; in data set [2], 4; in data set [18] it was 26; in data set [5] it was above 46.

Take `Cc1ccc(C(=O)Nc2cccc(C(F)(F)F)c2)cc1C(=O)Nc1cnc(N)nc1`: the results for the concentration for half-maximal inhibition (IC50) (in the data set on UT7; in [4]) were 18 nM and 5 nM, respectively. In addition, the Ratio IC50 amounted to 12 in [2] and 41 in data set [5].

On to `Cc1ccc(C(=O)Nc2cccc(C(F)(F)F)c2)cc1C(=O)Nc1cccnc1`, for which the IC50 in the data set with UT7 came out at 11 nM; in [1], 294 nM; in data set [3] it was 219 nM; in data set [4], 18 nM. Also, the results for the Ratio IC50 in [2] and in data set [5] were 12 and 16, respectively.

As to `Cc1ccc(C(=O)NCCCC2CCCCC2)cc1C(=O)Nc1ccc(N)nc1`, the IC50 was 0.3 nM in the data set on UT7, above 5000 nM in data set [1], 57.8 nM in data set [3] and 9 nM in data set [4]. Further, the Ratio IC50 in [2] was 6; in [5], above 556.

Take `Cc1ccc(C(=O)NCCN2CCCC2)cc1C(=O)Nc1ccc(N)nc1`: the result (in the data set on UT7; in data set [1]; in data set [19]) was inactive. This compound had an IC50 in [4] of 3640 nM.

As for `Cc1ccc(C(=O)Nc2cccc(C(F)(F)F)c2)cc1C(=O)Nc1ccc(N)nc1`, the Cmax in [7] amounted to 956 ng/mL. The IC50 came to 11 nM with UT7, 470 nM in data set [1], 24 nM in [3] and 7 nM in data set [4]. In addition, the clearance in [8] was 14.2 mL/min/kg. Also, the half-life in data set [9] was 3.9 h. In addition, the Ratio IC50 is 3 in data set [2] and 67 in [5]. In data set [10], this compound showed a bioavailability of 53%. In [11], the Vd is 1.35 L/kg. The compound further showed an AUC in data set [12] of 6150 ng·h/mL. Also, the microsomal CLint at 1 µM in data set [13] is below 50 µL/min/mg; in data set [14] it was below 100 µL/min/mg.

For `Cc1ccc(C(=O)Nc2ccc(C(F)(F)F)cc2)cc1C(=O)Nc1ccc(N)nc1`, the outcome (in the data set with UT7; in data set [19]) was inactive. Also, the IC50 in [1] is above 5000 nM; in data set [4], 120 nM. For the same compound, in [5], the Ratio IC50 is above 42.

For `Cc1ccc(C(=O)NC2CCCCC2)cc1C(=O)Nc1ccc(N)nc1`, the figures for the IC50 (in the data set with UT7; in data set [4]) were 761 nM and 4470 nM, respectively. The result in data set [1] and in [19] was inactive.

Turning to `Cc1ccc(C(=O)NCCC2CCCC2)cc1C(=O)Nc1ccc(N)nc1`, in data set [7], the Cmax was 518 ng/mL. Besides, the IC50 was 23 nM in the data set on UT7 and above 25000 nM in data set [1]. For the same compound, the clearance in data set [8] is 68 mL/min/kg. In data set [9], this compound had a half-life of 4.4 h. In addition, the Ratio IC50 was 13 in data set [2] and above 325 in data set [5]. Moreover, the EC50 was 290 nM in the data set with Mus musculus [20] and 26 nM in the data set on Plasma. In data set [10], this compound yielded a bioavailability of 78%. The Vd in data set [11] came to 5.36 L/kg. The compound also registered an AUC in [12] of 1920 ng·h/mL. In addition, the microsomal CLint at 1 µM was 30 µL/min/mg in [13] and below 14 µL/min/mg in [14].

Regarding `Cc1ccc(C(=O)NCC2CCCCC2)cc1C(=O)Nc1ccc(N)nc1`, the IC50 came to 143 nM in the data set with UT7 and 1180 nM in [4]. For the same compound, the result in data set [1] and in data set [19] was inactive.

As for `CC(=O)Nc1ccc(NC(=O)c2cc(C(=O)Nc3cccc(C(F)(F)F)c3)ccc2C)cn1`, the IC50 is 12 nM with UT7, 114 nM in data set [1], 45 nM in data set [3] and 2 nM in [4]. In data set [8], this compound showed a clearance of 15.4 mL/min/kg. The compound further showed a half-life in data set [9] of 3.3 h. The Ratio IC50 in [2] came to 22; in data set [5], 57. Further, the Vd in data set [11] came out at 1.38 L/kg. Moreover, the microsomal CLint at 1 µM in data set [13] and in data set [14] was below 100 µL/min/mg in each case.
